System: HCV replicon HuH5-2
Experiment: Cellular HCV-RNA replication assay (replicon system), luciferase reporter, with Alamar Blue cytotoxicity test
Format: cell-based, hepatitis C virus
Conditions: for SI (selectivity index) = CC50/EC50: CC50 from Alamar Blue fluorescence, EC50 from luciferase activity, HuH5-2 cells; for EC50: Hepatitis C virus, Huh-5-2, HuH5-2 replicon cells, substance concentration with which the luciferase activity decreases by 50% compared with the untreated replicon control, incubation 4-5 days
Description: 1. Measurement of the Activity of Substances in a Cellular HCV-RNA Replication Assay (“Replicon System”)
Hepatitis C cannot as of yet be replicated reproducibly with high titres in cell culture. The activity of substances is therefore detected in the so-called replicon system. This comprises parts of the HCV genome or complete HCV genomes which are transferred into cell lines (here HuH-7 cells) of human origin. It is possible by insertion of a selection marker to obtain stable cell lines which, under selection pressure, replicate genomic or subgenomic RNA of HCV [Lohmann et al., Science 285, 110-113 (1999); Blight et al., Science 290, 1972-1974 (2000)]. The HuH5-2 cells used here harbour a selectable, luciferase-carrying, cell culture-adapted replicon as described in EP 1 043 399. The cells are cultured in Dulbecco's modified […] medium (DMEM) with 10% fetal calf serum (FCS), 1% Pen/Strep, 1% NEAA, 1% L-glutamine and 250 μg/ml Geneticin (G418). To carry out the assays described below, the cells are initially trypsinized and resuspended with the DMEM medium described above without G418. Depending on the assay, the cells are seeded in 24-well or 384-well plates. Depending on the reading or assay method used, transparent or white assay plates coated for cell culture are used.
The test compounds are made up as 50 mM stock solution in DMSO. To determine the EC50 values, the substances subsequently undergo a serial two-fold dilution in DMEM. The dilutions are transferred as doublets to the cell culture plates. The trypsinized cells which have been resuspended in medium are then added. The final concentration of the test substances in the cell culture wells is for example 300 μM to 0.0001 μM. Interferon-alpha serves as reference substance in concentrations of 60 IU/ml to 1 IU/ml. Antimycin-alpha serves as cytotoxicity control in concentrations of 2 μM to 0.03,M. Untreated cells serve as reference. The plates are then incubated at 37° C. under 5% CO2 for 4-5 days. The various measurements and the quantification of the HCV replicon RNA then take place.
Alamar Blue is a water-soluble redox indicator which is reduced as a function of the metabolic activity of the cells to be investigated. The Alamar Blue test is used as quantitative cytotoxicity assay. For this purpose, the cells are seeded with the appropriate test substances (see above) in white 384-well cell culture plates and incubated correspondingly at 37° C. under 5% CO2 for 4 days. 4 to 6 hours before the actual measurement, 5 μl of Alamar Blue are added per well. The fluorescence is then measured at an […]. If this test is to be followed by chemiluminescence measurement (see below) on the same plate, the dye solution is aspirated off from the cells and the latter are subsequently washed once with PBS. The PBS is likewise aspirated off again from the cells.
A reporter gene is introduced into the HCV replicon HuH5-2, in this case the gene for the luciferase enzyme of Photinus pyralis. After the addition of the luciferase reagent (20 mM Tris/HCl, 20 mM tricine, 2.67 mM MgSO4, 0.1 mM EDTA, 33.3 mM DTT, 0.27 mM coenzyme A, 0.47 mM luciferin, 0.53 mM ATP, pH 7.8) to the cells, the chemiluminescence is measured in a luminometer. Normally, the photons are measured in a period of from 10 sec to 60 sec.
The following data can be determined from the assay plates: • CC50=substance concentration in μM with which the Alamar Blue fluorescence decreases by 50% compared with the untreated control; • EC50=substance concentration with which the luciferase activity decreases by 50% compared with the untreated replicon control; • SI (selectivity index)=CC50/EC50. […]

| SMILES | SI (selectivity index) = CC50/EC50 | EC50 [nM] |
| --- | --- | --- |
| CC(C)N(c1sc(-c2ccccc2)cc1C(=O)O)C(=O)[C@H]1CC[C@H](C)CC1 [Example 1, 2-[Isopropyl-(trans-4-methylcyclohexanecarbonyl)amino]-5-phenylthiophene-3-carboxylic acid] | >50 | 1000 |
| CC(C)N(c1sc(-c2ccc(F)cc2)cc1C(=O)O)C(=O)[C@H]1CC[C@H](C)CC1 [Example 19, 5-(4-Fluorophenyl)-2-{isopropyl[(trans-4-methylcyclohexyl)carbonyl]amino}thiophene-3-carboxylic acid] | >100 | 400 |
| CC(C)N(c1sc(C2CCN(S(C)(=O)=O)CC2)cc1C(=O)O)C(=O)[C@H]1CC[C@H](C)CC1 [Example 35, 2-{Isopropyl[(trans-4-methylcyclohexyl)carbonyl]amino}-5-[1-(methylsulfonyl)piperidin-4-yl]thiophene-3-carboxylic acid] | >18 | 2800 |
| CC(C)N(c1sc(-c2cccnc2)cc1C(=O)O)C(=O)[C@H]1CC[C@H](C)CC1 [Example 30] | >38 | 1300 |
| CC(C)N(C(=O)[C@@H]1CC[C@@H](C)C[C@@H]1O)c1sc(-c2ccccc2)cc1C(=O)O (single isomer, unassigned) [Example 54] | >277 | 180 |
| COCC(C)N(C(=O)C1CCC(C)CC1)c1sc(-c2ccccc2)cc1C(=O)O (centres unmarked) [Example 49] | >63 | 800 |
| C[C@H]1CC[C@H](C(=O)N(c2sc(-c3ccccc3)cc2C(=O)O)C2CCOCC2)CC1 [Example 42, 2-[[(trans-4-Methylcyclohexyl)carbonyl](tetrahydro-2H-pyran-4-yl)amino]-5-phenylthiophene-3-carboxylic acid] | >100 | 500 |

Source: patent US20070099929A1, “Substituted thiophenes” (AiCuris GmbH & Co. KG, priority 2003, published 2007)
